Experimental data from patent US7875282B2 (Cordis Corporation, priority 2004, dated 2011).
Blank lines part the entries; values can stand above or below the molecule they belong to.

What was measured:
[1] = system: human coronary artery smooth muscle cells; test: Anti-proliferative activity in synchronized cultured cells stimulated with two percent fetal bovine serum; format: cell-based; settings: for effect of addition on the anti-proliferative activity of rapamycin: added to rapamycin
Excerpt: The multiple curves represent various concentrations of topotecan ranging from zero to three hundred nanomolar concentrations.
The multiple curves represent various concentrations of etoposide ranging from zero to eight hundred nanomolar concentrations.
The multiple curves represent various concentrations of Panzem® ranging from zero to 100 micromolar concentrations.

[2] = system: human smooth muscle cells; test: PDGF-stimulated proliferation of human smooth muscle cells, cell count; format: cell-based; settings: from IC50 values
Protocol: To assess the ability of cladribine to prevent cell proliferation, human smooth muscle or endothelial cells (Clonetics, Walkersville, Md.) were seeded at a density of 2000 cells/cm^2 (approximately 3600 cells/well) into each well of 12-well plates and cultured with 1.5 ml of growth medium containing five percent fetal calf serum (FCS). After twenty-four hours, the growth medium was changed and fresh medium containing 10 ng/ml platelet-derived growth factor AB (PDGF AB; LIFE Technologies), as well as various concentrations of cladribine (0.001-10,000 nM) were added with triplicate wells. Medium was replaced with fresh cladribine-containing medium after three days. On day six, cells were detached by trypsinization to yield a cell suspension, lightly centrifuged to pellet and then counted manually using a Neubauer hemocytometer system. Cell viability was assessed by trypan blue exclusion.

[3] = In vivo release kinetics from rapamycin, cladribine and polymer coating, porcine pharmacokinetics studies; design: species or system Yorkshire pigs; settings: Bx Velocity stents, BMA topcoat
Excerpt: (§1) The basecoat is applied to Bx Velocity® stents and implanted into Yorkshire pigs.
as §1

[4] = system: human coronary artery smooth muscle cells; test: Anti-proliferative activity in non-synchronized cultured cells stimulated with two percent fetal bovine serum; format: cell-based; settings: for effect of addition on the anti-proliferative activity of rapamycin: non-synchronized cells, added to rapamycin
Excerpt: The multiple curves represent various concentrations of mycophenolic acid ranging from zero to one thousand nanomolar concentrations.
FIG. 58 illustrates, in graphical format, the anti-proliferative activity of cladribine in non-synchronized cultured human coronary artery smooth muscle cells stimulated with two percent fetal bovine serum.
The multiple curves represent various concentrations of cladribine ranging from zero to nine hundred nanomolar concentrations.

[5] = In vivo release kinetics from rapamycin, mycophenolic acid and polymer coating, porcine pharmacokinetics studies; settings: one hundred eighty micro grams each drug
tumor cell lines = settings: Woo et al., J. Med Chem 2002; cited from earlier work
[6] = system: human coronary artery smooth muscle cell; test: In vitro cell culture study of coronary artery smooth muscle cell proliferation; format: cell-based
Excerpt: FIG. 51 is a graph of the inhibition of coronary artery smooth muscle cells by trichostatin A in a cell culture study.

Structure (SMILES): COc1cc2c(cc1O)CC[C@@H]1[C@@H]2CC[C@]2(C)[C@@H](O)CC[C@@H]12 [Panzem®, 2-methoxyestradiol]
- effect of addition on the anti-proliferative activity of rapamycin [1]: increases the percent of inhibition of rapamycin alone
- anti-proliferative activity ([1]; agent alone): extremely effective inhibitor of human coronary artery smooth muscle cell proliferation

- elution from EVA/BMA basecoat compared with rapamycin [3]: elutes more rapidly than rapamycin
Structure (SMILES): Nc1nc(Cl)nc2c1ncn2[C@H]1C[C@H](O)[C@@H](CO)O1 [cladribine, 2-chlorodeoxyadenosine]
- potency as inhibitor of smooth muscle cells relative to endothelial cells [2]: approximately twice
- effect of addition on the anti-proliferative activity of rapamycin [4]: increases the percent inhibition of rapamycin alone
- inhibition of human coronary artery smooth muscle cell proliferation ([4]; non-synchronized, two percent fetal bovine serum): completely inhibits

Structure (SMILES): COc1cc([C@@H]2c3cc4c(cc3[C@@H](O[C@@H]3O[C@@H]5CO[C@@H](C)O[C@H]5[C@H](O)[C@H]3O)[C@H]3COC(=O)[C@H]23)OCO4)cc(OC)c1O [etoposide]
- effect of addition on the anti-proliferative activity of rapamycin [1]: increases the percent inhibition of rapamycin alone

Structure (SMILES): COc1c(C)c2c(c(O)c1C/C=C(\C)CCC(=O)O)C(=O)OC2 [mycophenolic acid]
- elution from EVA/BMA basecoat compared with rapamycin [5]: elutes more completely over a shorter duration than the rapamycin
- effect of addition on the anti-proliferative activity of rapamycin [4]: potentiates the anti-proliferative activity of rapamycin

Structure (SMILES): CC[C@@]1(O)C(=O)OCc2c1cc1n(c2=O)Cc2cc3c(CN(C)C)c(O)ccc3nc2-1 [topotecan]
- effect of addition on the anti-proliferative activity of rapamycin [1]: increases the percent inhibition of rapamycin alone

Structure (SMILES): CC(/C=C/C(=O)NO)=C\[C@@H](C)C(=O)c1ccc(N(C)C)cc1 [trichostatin A]
- anti-proliferative IC50's (tumor cell lines): low nM range
- inhibition of human coronary artery smooth muscle cell proliferation [6]: completely inhibit
- IC50 ([6]; read-out: anti-proliferative IC50): ~6 nM
